Measurements published in the supplement of paper PMC10307832.

Tests used:
Assay in all cases: relative viability (nuclei count vs DMSO), 5 days (fraction); higher = more cells survive
NCI-H1395 = system: NCI-H1395
In short: (§1)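 Lung cancer cell lines, seeded in 1536-well plates, were treated the following day by pin tool with a single drug or with five library-drug doses (not always all listed) in √10 steps on top of a fixed anchor-drug dose. Cells were fixed and nuclei stained in one step after 5 days, and nuclei were counted. Relative viability is the nuclei count for treated wells divided by that for vehicle wells, reported as medians of duplicate plates.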

UMC-11 = system: UMC-11
In short: as §1

ABC-1 = system: ABC-1
In short: as §1

201T = system: 201T
In short: as §1

NCI-H1915 = system: NCI-H1915
In short: as §1

NCI-H661 = system: NCI-H661
In short: as §1

NCI-H2405 = system: NCI-H2405
In short: as §1

EMC-BAC-2 = system: EMC-BAC-2
In short: as §1

HCC-78 = system: HCC-78
In short: as §1

NCI-H1437 = system: NCI-H1437
In short: as §1

NCI-H1793 = system: NCI-H1793
In short: as §1

NCI-H23 = system: NCI-H23
In short: as §1

SK-LU-1 = system: SK-LU-1
In short: as §1

NCI-H1651 = system: NCI-H1651
In short: as §1

NCI-H1792 = system: NCI-H1792
In short: as §1

NCI-H2023 = system: NCI-H2023
In short: as §1

NCI-H647 = system: NCI-H647
In short: as §1

NCI-H1975 = system: NCI-H1975
In short: as §1

RERF-LC-KJ = system: RERF-LC-KJ
In short: as §1

LOU-NH91 = system: LOU-NH91
In short: as §1

EPLC-272H = system: EPLC-272H
In short: as §1

LCLC-103H = system: LCLC-103H
In short: as §1

NCI-H1734 = system: NCI-H1734
In short: as §1

Compound: O=c1[nH]c2ccccc2n1C1CCN(CCCC(c2ccc(F)cc2)c2ccc(F)cc2)CC1 [Pimozide] + CC(=O)c1c(C)c2cnc(Nc3ccc(N4CCNCC4)cn3)nc2n(C2CCCC2)c1=O [Palbociclib] (partner 0.5 µM)
- relative viability (NCI-H1395; first compound 0.08 µM): 0.579
- relative viability (NCI-H1395; first compound 0.253 µM): 0.655
- relative viability (NCI-H1395; first compound 0.8 µM): 0.538
- relative viability (NCI-H1395; first compound 2.53 µM): 0.623
- relative viability (NCI-H1395; first compound 8 µM): 0.578
- relative viability (UMC-11; first compound 0.08 µM): 0.313
- relative viability (UMC-11; first compound 0.253 µM): 0.35
- relative viability (UMC-11; first compound 0.8 µM): 0.315
- relative viability (UMC-11; first compound 2.53 µM): 0.278
- relative viability (UMC-11; first compound 8 µM): 0.367
- relative viability (ABC-1; first compound 0.08 µM): 0.527
- relative viability (ABC-1; first compound 0.253 µM): 0.565
- relative viability (ABC-1; first compound 0.8 µM): 0.874
- relative viability (ABC-1; first compound 2.53 µM): 0.614
- relative viability (ABC-1; first compound 8 µM): 0.462
- relative viability (201T; first compound 0.08 µM): 0.363
- relative viability (201T; first compound 0.253 µM): 0.356
- relative viability (201T; first compound 0.8 µM): 0.337
- relative viability (201T; first compound 2.53 µM): 0.314
- relative viability (201T; first compound 8 µM): 0.342
- relative viability (NCI-H1915; first compound 0.08 µM): 0.435
- relative viability (NCI-H1915; first compound 0.253 µM): 0.498
- relative viability (NCI-H1915; first compound 2.53 µM): 0.501
- relative viability (NCI-H1915; first compound 8 µM): 0.477
- relative viability (NCI-H661; first compound 0.08 µM): 0.4
- relative viability (NCI-H661; first compound 0.253 µM): 0.412
- relative viability (NCI-H661; first compound 0.8 µM): 0.367
- relative viability (NCI-H661; first compound 2.53 µM): 0.395
- relative viability (NCI-H661; first compound 8 µM): 0.327
- relative viability (NCI-H2405; first compound 0.08 µM): 0.522
- relative viability (NCI-H2405; first compound 0.253 µM): 0.516
- relative viability (NCI-H2405; first compound 0.8 µM): 0.478
- relative viability (NCI-H2405; first compound 2.53 µM): 0.456
- relative viability (NCI-H2405; first compound 8 µM): 0.33
- relative viability (EMC-BAC-2; first compound 0.08 µM): 0.517
- relative viability (EMC-BAC-2; first compound 0.253 µM): 0.505
- relative viability (EMC-BAC-2; first compound 0.8 µM): 0.511
- relative viability (EMC-BAC-2; first compound 2.53 µM): 0.506
- relative viability (EMC-BAC-2; first compound 8 µM): 0.495
- relative viability (HCC-78; first compound 0.08 µM): 0.514
- relative viability (HCC-78; first compound 0.8 µM): 0.431
- relative viability (HCC-78; first compound 2.53 µM): 0.421
- relative viability (HCC-78; first compound 8 µM): 0.524
- relative viability (NCI-H1437; first compound 0.08 µM): 0.338
- relative viability (NCI-H1437; first compound 0.253 µM): 0.328
- relative viability (NCI-H1437; first compound 0.8 µM): 0.25
- relative viability (NCI-H1437; first compound 2.53 µM): 0.256
- relative viability (NCI-H1437; first compound 8 µM): 0.265
- relative viability (NCI-H1793; first compound 0.08 µM): 0.263
- relative viability (NCI-H1793; first compound 0.253 µM): 0.289
- relative viability (NCI-H1793; first compound 0.8 µM): 0.306
- relative viability (NCI-H1793; first compound 2.53 µM): 0.285
- relative viability (NCI-H1793; first compound 8 µM): 0.339
- relative viability (NCI-H23; first compound 0.08 µM): 0.454
- relative viability (NCI-H23; first compound 0.253 µM): 0.525
- relative viability (NCI-H23; first compound 0.8 µM): 0.435
- relative viability (NCI-H23; first compound 2.53 µM): 0.445
- relative viability (NCI-H23; first compound 8 µM): 0.553
- relative viability (SK-LU-1; first compound 0.08 µM): 0.384
- relative viability (SK-LU-1; first compound 0.253 µM): 0.533
- relative viability (SK-LU-1; first compound 0.8 µM): 0.404
- relative viability (SK-LU-1; first compound 2.53 µM): 0.377
- relative viability (SK-LU-1; first compound 8 µM): 0.348
- relative viability (NCI-H1651; first compound 0.08 µM): 0.514
- relative viability (NCI-H1651; first compound 0.253 µM): 0.466
- relative viability (NCI-H1651; first compound 0.8 µM): 0.534
- relative viability (NCI-H1651; first compound 2.53 µM): 0.497
- relative viability (NCI-H1651; first compound 8 µM): 0.546
- relative viability (NCI-H1792; first compound 0.08 µM): 0.665
- relative viability (NCI-H1792; first compound 0.253 µM): 0.635
- relative viability (NCI-H1792; first compound 0.8 µM): 0.625
- relative viability (NCI-H1792; first compound 2.53 µM): 0.589
- relative viability (NCI-H1792; first compound 8 µM): 0.52
- relative viability (NCI-H2023; first compound 0.08 µM): 0.337
- relative viability (NCI-H2023; first compound 0.253 µM): 0.39
- relative viability (NCI-H2023; first compound 0.8 µM): 0.341
- relative viability (NCI-H2023; first compound 2.53 µM): 0.333
- relative viability (NCI-H2023; first compound 8 µM): 0.245
- relative viability (NCI-H647; first compound 0.08 µM): 0.404
- relative viability (NCI-H647; first compound 0.253 µM): 0.509
- relative viability (NCI-H647; first compound 0.8 µM): 0.384
- relative viability (NCI-H647; first compound 2.53 µM): 0.32
- relative viability (NCI-H647; first compound 8 µM): 0.313
- relative viability (NCI-H1975; first compound 0.08 µM): 0.402
- relative viability (NCI-H1975; first compound 0.253 µM): 0.515
- relative viability (NCI-H1975; first compound 0.8 µM): 0.619
- relative viability (NCI-H1975; first compound 2.53 µM): 0.593
- relative viability (NCI-H1975; first compound 8 µM): 0.494
- relative viability (RERF-LC-KJ; first compound 0.08 µM): 1
- relative viability (RERF-LC-KJ; first compound 0.253 µM): 0.972
- relative viability (RERF-LC-KJ; first compound 0.8 µM): 0.987
- relative viability (RERF-LC-KJ; first compound 2.53 µM): 0.778
- relative viability (RERF-LC-KJ; first compound 8 µM): 0.851
- relative viability (LOU-NH91; first compound 0.08 µM): 0.525
- relative viability (LOU-NH91; first compound 0.253 µM): 0.404
- relative viability (LOU-NH91; first compound 0.8 µM): 0.443
- relative viability (LOU-NH91; first compound 2.53 µM): 0.558
- relative viability (LOU-NH91; first compound 8 µM): 0.539
- relative viability (EPLC-272H; first compound 0.08 µM): 0.309
- relative viability (EPLC-272H; first compound 0.253 µM): 0.308
- relative viability (EPLC-272H; first compound 0.8 µM): 0.328
- relative viability (EPLC-272H; first compound 2.53 µM): 0.329
- relative viability (EPLC-272H; first compound 8 µM): 0.333
- relative viability (LCLC-103H; first compound 0.08 µM): 0.451
- relative viability (LCLC-103H; first compound 0.253 µM): 0.46
- relative viability (LCLC-103H; first compound 0.8 µM): 0.428
- relative viability (LCLC-103H; first compound 2.53 µM): 0.444
- relative viability (LCLC-103H; first compound 8 µM): 0.489
- relative viability (NCI-H1734; first compound 0.08 µM): 0.316
- relative viability (NCI-H1734; first compound 0.253 µM): 0.262
- relative viability (NCI-H1734; first compound 0.8 µM): 0.372
- relative viability (NCI-H1734; first compound 2.53 µM): 0.347
- relative viability (NCI-H1734; first compound 8 µM): 0.328
